The source of these data is ChEMBL document CHEMBL4028852, “Design of a Chemical Probe for the Bromodomain and Plant Homeodomain Finger-Containing (BRPF) Family of Proteins” (J Med Chem, 2017).

One may read the ΔTm as the shift of the melting midpoint relative to a reference. By IC50 is commonly meant the concentration needed to halve the response being measured. A higher IC50 goes with a need for much substance. By Papp B→A is commonly meant the apparent permeability from the basolateral to the apical side of a cell layer. One may read the bioavailability as dose-corrected exposure relative to a reference, in per cent. A lower bioavailability goes with poor availability.

Series [1] deals with T1, Peregrin (Homo sapiens) (UniProt P55201).
T1 sequence (whole entry): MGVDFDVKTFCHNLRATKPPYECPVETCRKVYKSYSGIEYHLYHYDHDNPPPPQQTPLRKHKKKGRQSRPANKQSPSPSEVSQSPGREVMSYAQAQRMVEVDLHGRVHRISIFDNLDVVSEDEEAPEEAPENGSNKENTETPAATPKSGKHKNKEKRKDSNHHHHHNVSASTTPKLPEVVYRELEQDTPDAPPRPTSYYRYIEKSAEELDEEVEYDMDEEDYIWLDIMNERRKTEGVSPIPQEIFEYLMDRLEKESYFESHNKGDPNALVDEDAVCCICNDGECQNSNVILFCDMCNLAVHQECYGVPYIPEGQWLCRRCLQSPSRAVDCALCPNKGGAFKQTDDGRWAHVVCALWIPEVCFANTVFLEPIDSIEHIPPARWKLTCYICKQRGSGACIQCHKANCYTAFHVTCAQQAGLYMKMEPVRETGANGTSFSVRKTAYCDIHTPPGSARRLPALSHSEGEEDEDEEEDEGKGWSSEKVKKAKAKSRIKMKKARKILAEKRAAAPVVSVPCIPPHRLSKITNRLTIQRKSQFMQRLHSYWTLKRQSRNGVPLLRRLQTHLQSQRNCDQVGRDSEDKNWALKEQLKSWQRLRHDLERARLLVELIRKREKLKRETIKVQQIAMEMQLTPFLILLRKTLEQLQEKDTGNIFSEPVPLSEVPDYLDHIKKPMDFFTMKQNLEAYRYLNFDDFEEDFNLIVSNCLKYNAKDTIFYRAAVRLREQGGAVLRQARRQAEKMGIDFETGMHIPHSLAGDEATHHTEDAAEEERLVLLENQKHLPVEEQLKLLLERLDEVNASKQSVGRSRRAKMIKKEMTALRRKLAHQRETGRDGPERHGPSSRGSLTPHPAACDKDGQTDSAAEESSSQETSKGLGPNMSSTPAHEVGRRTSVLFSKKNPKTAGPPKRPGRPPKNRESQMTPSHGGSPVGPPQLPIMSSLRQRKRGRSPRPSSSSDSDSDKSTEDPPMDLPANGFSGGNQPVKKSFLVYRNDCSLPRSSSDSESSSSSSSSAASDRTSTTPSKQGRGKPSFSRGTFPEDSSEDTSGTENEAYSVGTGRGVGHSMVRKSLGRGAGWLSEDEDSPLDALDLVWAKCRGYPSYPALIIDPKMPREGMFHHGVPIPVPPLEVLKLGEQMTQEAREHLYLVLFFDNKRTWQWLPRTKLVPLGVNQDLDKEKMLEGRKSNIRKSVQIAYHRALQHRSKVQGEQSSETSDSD
Description: Binding affinity to BRPF1 (unknown origin) assessed as change in melting temperature at 10 uM by differential scanning fluorimetry based thermal shift assay

For series [2], the target named is T2, Bromodomain-containing protein 4 (Homo sapiens, UniProt O60885). Kind of series: Inhibition of human BRD4 isoform long bromodomain 1 (44 to 168 residues) expressed in Escherichia coli BL21 after 1 hr by BROMOscan assay.
The target in series [3] is T3, Bromodomain and PHD finger-containing protein 3 (Homo sapiens, UniProt Q9ULD4).
T3 sequence (Q9ULD4 whole entry): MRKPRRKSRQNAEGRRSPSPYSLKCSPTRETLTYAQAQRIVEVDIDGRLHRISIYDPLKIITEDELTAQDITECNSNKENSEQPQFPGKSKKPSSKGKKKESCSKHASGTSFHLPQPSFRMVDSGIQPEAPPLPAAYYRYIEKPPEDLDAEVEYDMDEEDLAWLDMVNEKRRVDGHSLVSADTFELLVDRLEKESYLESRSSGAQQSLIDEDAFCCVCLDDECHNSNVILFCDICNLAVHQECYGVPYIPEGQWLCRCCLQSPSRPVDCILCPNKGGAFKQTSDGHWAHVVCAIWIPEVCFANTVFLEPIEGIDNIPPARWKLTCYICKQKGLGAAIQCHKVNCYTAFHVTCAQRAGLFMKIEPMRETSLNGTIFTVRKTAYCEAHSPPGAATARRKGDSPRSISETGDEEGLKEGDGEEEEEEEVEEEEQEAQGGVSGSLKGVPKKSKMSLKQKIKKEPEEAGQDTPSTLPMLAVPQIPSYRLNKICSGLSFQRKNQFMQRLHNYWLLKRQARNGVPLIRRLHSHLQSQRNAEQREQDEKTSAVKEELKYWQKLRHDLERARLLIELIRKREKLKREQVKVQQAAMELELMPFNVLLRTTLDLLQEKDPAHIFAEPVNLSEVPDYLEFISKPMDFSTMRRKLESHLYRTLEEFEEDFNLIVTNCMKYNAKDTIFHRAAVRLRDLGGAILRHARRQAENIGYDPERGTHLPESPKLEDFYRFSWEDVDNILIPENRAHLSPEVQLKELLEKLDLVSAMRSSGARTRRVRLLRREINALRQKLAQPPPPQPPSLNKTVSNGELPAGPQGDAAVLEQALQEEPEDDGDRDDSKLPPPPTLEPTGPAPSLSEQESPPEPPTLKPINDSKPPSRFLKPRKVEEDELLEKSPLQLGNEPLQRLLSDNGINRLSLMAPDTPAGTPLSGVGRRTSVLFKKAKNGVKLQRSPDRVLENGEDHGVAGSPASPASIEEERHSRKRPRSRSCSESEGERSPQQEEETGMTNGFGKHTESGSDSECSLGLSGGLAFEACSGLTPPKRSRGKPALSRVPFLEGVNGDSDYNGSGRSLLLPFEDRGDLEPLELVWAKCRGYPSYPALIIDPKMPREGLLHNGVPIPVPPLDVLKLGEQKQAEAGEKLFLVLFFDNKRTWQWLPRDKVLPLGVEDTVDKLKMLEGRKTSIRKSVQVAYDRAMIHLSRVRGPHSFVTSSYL
Kind of series: Inhibition of human BRPF3 (588 to 701 residues) expressed in Escherichia coli BL21 after 1 hr by BROMOscan assay.

A short description of series [4]: Elimination half life in CD1 mouse at 1 mg/kg, iv by UPLC-MS/MS analysis. The format is ADME, organism-based. The conditions noted are these: in vivo, read-out: beta t1/2 (converted).
A short description of series [5]: Apparent permeability across basolateral to apical side in human Caco2 cells at 10 uM after 2 hrs by LC-MS/MS analysis. The format is ADME, cell-based. The conditions noted are these: Caco-2. In general terms: Caco-2 cells form a polarised layer with tight junctions and transporters.
Series [6] is described as follows: Inhibition of CYP450 (unknown origin). The series is classed as ADME. The conditions noted are these: human.
Series [7] concerns the target T2, Bromodomain-containing protein 4. Description: Inhibition of human BRD4 bromodomain 1 (unknown origin) by Alexa Fluor 647-JQ1 probe-based fluoresence polarization competition assay.
Series [8] is described as follows: Oral bioavailability in CD1 mouse at 3 mg/kg by UPLC-MS/MS analysis. The series is classed as ADME, organism-based. As to conditions: in vivo; call rule not given here.

For the molecule `Cn1c(=O)ccc2cc(S(=O)(=O)Nc3ccccc3)ccc21`, the ΔTm in series [1] was 3.5 °C. Moreover, the figures for the IC50 in series [2] and in series [3] were 37 µM and above 100 µM, respectively.

As to `COc1cc(C#N)ccc1S(=O)(=O)Nc1ccc2c(c1)cc(C)c(=O)n2C`, the ΔTm in series [1] amounted to 12.3 °C. Moreover, the 50% inhibitory concentration (IC50) was 3.7 µM in series [2] and above 33 µM in series [7]. Besides, in series [4], the half-life is 72 min. In addition, the Papp B→A at 2 h, 10 µM in series [5] was 52 ×10⁻⁶ cm/s. For the same molecule, the “inhibition (INH)” value in series [6] is on record as “Not Active”. In series [8], this molecule registered a bioavailability of 29%.

`COc1cc(C#N)ccc1S(=O)(=O)Nc1ccc2c(c1)cc(C(C)C)c(=O)n2C` yielded an IC50 in series [3] of 4.6 µM.
